Experimental findings from patent US8481539B2, “Alkynylaryl compounds and salts thereof, pharmaceutical compositions comprising same, methods of preparing same and uses of same” (Bayer Intellectual Property GmbH, priority 2007, dated 2013) are described below.

What all share (type): biochemical
One assay has as its target T1, human VEGFR2 (Homo sapiens, UniProt P35968).
T1 construct: GST-tagged recombinant kinase domain of the human VEGFR2; GST; host or cells: SF-9 cells
The assay is described as follows: VEGFR2 HTRF Assay (assay 5). Particulars: pIC50 class; 10 μM ATP; read-out: Enzymatic VEGFR2 activity (assay 5). An excerpt: Assay 5: VEGFR2 HTRF Assay
VEGFR2 inhibitory activity of compounds of the present invention was quantified employing the VEGFR2 HTRF assay as described in the following paragraphs.
GST-tagged recombinant kinase domain of the human VEGFR2 expressed in SF-9 cells was used as kinase. As substrate for the kinase reaction the biotinylated peptide biotin-Ahx-DFGLARDMYDKEYYSVG (C-terminus in acid form) was used which can be purchased e.g. form the company Biosynthan GmbH (Berlin-Buch, Germany). VEGFR2 was incubated for 45 min at 22° C. in the presence of different concentrations of test compounds in 5 μl assay buffer [50 mM Hepes/NaOH pH 7.0, 25 mM MgCl2, 5 mM MnCl2, 1.0 mM dithiothreitol, 0.1 mM sodium ortho-vanadate, 10 μM adenosine-tri-phosphate (ATP), 0.5 μM substrate, 0.001% (v/v) Nonidet-P40 (Sigma), 1% (v/v) dimethylsulfoxide]. The concentration of VEGFR2 was adjusted depending of the activity of the enzyme lot and was chosen appropriate to have the assay in the linear range. The reaction was stopped by the addition of 5 μl of a solution of HTRF detection reagents (0.1 μM streptavidine-XLent and 2 nM PT66-Eu-Chelate, an europium-chelate labelled anti-phospho-tyrosine antibody from Perkin Elmer) in an aqueous EDTA-solution (125 mM EDTA, 0.2% (w/v) bovine serum albumin in 50 mM HEPES/NaOH pH 7.0).
(§1) The resulting mixture was incubated for 1 h at 22° C. to allow the binding of the biotinylated phosphorylated peptide to the streptavidine-XLent and the PT66-Eu-Chelate. Subsequently the amount of phosphorylated substrate was evaluated by measurement of the resonance energy transfer from the PT66-Eu-Chelate to the streptavidine-XLent. Therefore, the fluorescence emissions at 620 nm and 665 nm after excitation at 350 nm was measured in a HTRF reader, e.g. a Rubystar (BMG Labtechnologies, Offenburg, Germany) or a Viewlux (Perkin-Elmer). The ratio of the emissions at 665 nm and at […] was taken as the measure for the amount of phosphorylated substrate. The data were normalized (enzyme reaction without inhibitor=0% inhibition, all other assay components but no enzyme=100% inhibition) and IC50 values were calculated by a 4 parameter fit using an inhouse software.

Assay [1] concerns the target T2, human insuline receptor (Ins-R) (Homo sapiens, UniProt P06213).
T2 construct: GST-tagged recombinant kinase domain of the human insuline receptor; GST; purchased ProQinase, Freiburg, Germany; host or cells: SF-9 cells
The assay is described as follows: Insulin Receptor HTRF Assay (assay 4). Particulars: pIC50 class; 10 μM ATP; read-out: Enzymatic InsR activity (assay 4). As to the method: Assay 4: Insulin Receptor HTRF Assay
Inhibitory activity of compounds against the kinase activity of the insulin receptor was quantified employing the Ins-R HTRF assay as described in the following paragraphs.
GST-tagged recombinant kinase domain of the human insuline receptor (Ins-R, purchase from ProQinase, Freiburg, Germany) expressed in SF-9 cells was used as kinase. As substrate for the kinase reaction biotinylated poly-(Glu, Tyr) (Cis biointernational, France) was used.
Ins-R was incubated for 20 min at 22° C. in the presence of different concentrations of test compounds in 5 μl assay buffer [50 mM Hepes/NaOH pH 7, 15 mM MnCl2, 1 mM dithiothreitol, 0.1 μM sodium ortho-vanadate, 0.015% (v/v) PEG20000, 10 μM adenosine-tri-phosphate (ATP), 0.3 μg/ml substrate, 1% (v/v) dimethylsulfoxide]. The concentration of Ins-R was adjusted depending of the activity of the enzyme lot and was chosen appropriate to have the assay in the linear range, typical concentrations were in the range of 10 pg/μl. The reaction was stopped by the addition of 5 μl of a solution of HTRF detection reagents (0.1 μM streptavidine-XLent and 1 nM PT66-Eu-Chelate, an europium-chelate labelled anti-phospho-tyrosine antibody from Perkin Elmer) in an aqueous EDTA-solution (80 mM EDTA, 0.2% (w/v) bovine serum albumin in 50 mM HEPES/NaOH pH 7.0).
as §1, with “incubated” for “incubated for”, “normalised” for “normalized”
(Time-resolved FRET reads energy transfer from a long-lived donor to a nearby acceptor.)

The target in the next assay is T3, Tie-2 (Homo sapiens, UniProt Q02763).
T3 construct: fusion protein of GST and the intracellular domains of Tie-2; GST; made in house; host or cells: insect cells (Hi-5)
T3 sequence (Q02763 770-1124 limits assumed, species assumed): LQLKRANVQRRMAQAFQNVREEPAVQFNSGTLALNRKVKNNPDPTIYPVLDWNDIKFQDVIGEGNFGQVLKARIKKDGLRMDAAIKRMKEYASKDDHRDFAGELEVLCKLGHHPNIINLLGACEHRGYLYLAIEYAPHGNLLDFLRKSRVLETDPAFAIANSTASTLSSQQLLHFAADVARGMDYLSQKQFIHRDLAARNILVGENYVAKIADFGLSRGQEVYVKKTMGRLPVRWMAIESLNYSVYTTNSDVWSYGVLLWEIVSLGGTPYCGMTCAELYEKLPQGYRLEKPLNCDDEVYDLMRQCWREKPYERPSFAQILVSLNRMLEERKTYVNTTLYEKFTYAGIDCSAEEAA
In words: Tie-2-Kinase HTRF-Assay (assay 2). Particulars: pIC50 class; 10 μM ATP; read-out: Enzymatic Tie 2 activity (assay 2).
Description: Tie2-inhibitory activity of compounds of the present invention was quantified employing two Tie2 HTRF assay as described in the following paragraphs.
A recombinant fusion protein of GST and the intracellular domains of Tie-2, expressed in insect cells (Hi-5) and purified by Glutathion-Sepharose affinity chromatography was used as kinase. Alternatively, commercially available GST-Tie2-fusion protein (Upstate Biotechnology, Dundee, Scotland) can be used As substrate for the kinase reaction the biotinylated peptide biotin-Ahx-EPKDDAYPLYSDFG (C-terminus in amid form) was used which can be purchased e.g. from the company Biosynthan GmbH (Berlin-Buch, Germany). Detection of phosphorylated product is achieved specifically by a trimeric detection complex consisting of the phosphorylated substrate, streptavidin-XLent (SA-XLent) which binds to biotin, and Europium Cryptate-labeled anti-phosphotyrosine antibody PT66 which binds to phosphorylated tyrosine.
Tie-2 (3.5 ng/measurement point) was incubated for 60 min at 22° C. in the presence of 10 μM adenosine-tri-phosphate (ATP) and 1 μM substrate peptide (biotin-Ahx-EPKDDAYPLYSDFG-NH2) with different concentrations of test compounds (0 μM and concentrations in the range 0.001-20 μM) in 5 μl assay buffer [50 mM Hepes/NaOH pH 7, 10 mM MgCl2, 0.5 mM MnCl2, 1.0 mM dithiothreitol, 0.01% NP40, protease inhibitor mixture (“Complete w/o EDTA” from Roche, 1 tablet per 2.5 ml), 1% (v/v) dimethylsulfoxide]. The reaction was stopped by the addition of 5 μl of an aqueous buffer (25 mM Hepes/NaOH pH 7.5, 0.28% (w/v) bovine serum albumin) containing EDTA (90 mM) and the HTRF (Homogeneous Time Resolved Fluorescence) detection reagents streptavidine-XLent (0.2 μM, from Cis Biointemational, Marcoule, France) and PT66-Eu-Chelate (0.3 ng/μl; a europium-chelate labelled anti-phospho-tyrosine antibody from Perkin Elmer).
as §1, with “incubated” for “incubated for”, “substrate peptide” for “substrate”, “substrate peptide.” for “substrate.”, “normalised” for “normalized”, “inhibitor=0 (%” for “inhibitor=0%”

Some results are limits rather than exact numbers.

T1 sequence (P35968 834-1162 limits assumed): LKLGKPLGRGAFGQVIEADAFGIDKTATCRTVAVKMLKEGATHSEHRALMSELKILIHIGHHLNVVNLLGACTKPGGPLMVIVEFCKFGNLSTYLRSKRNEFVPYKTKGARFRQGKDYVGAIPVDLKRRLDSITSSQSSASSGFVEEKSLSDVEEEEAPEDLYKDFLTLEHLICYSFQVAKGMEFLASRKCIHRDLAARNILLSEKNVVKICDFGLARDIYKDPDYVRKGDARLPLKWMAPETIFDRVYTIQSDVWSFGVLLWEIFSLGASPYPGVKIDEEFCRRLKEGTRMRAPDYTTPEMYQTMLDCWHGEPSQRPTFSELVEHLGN
T2 sequence (P06213 1023-1298 limits assumed): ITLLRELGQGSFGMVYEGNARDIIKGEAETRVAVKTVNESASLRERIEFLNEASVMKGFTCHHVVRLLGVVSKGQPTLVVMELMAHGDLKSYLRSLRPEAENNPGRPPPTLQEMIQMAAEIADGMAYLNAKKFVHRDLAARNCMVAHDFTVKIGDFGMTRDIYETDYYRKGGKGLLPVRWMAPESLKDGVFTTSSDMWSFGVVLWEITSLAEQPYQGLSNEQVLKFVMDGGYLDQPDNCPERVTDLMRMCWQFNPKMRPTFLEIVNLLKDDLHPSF

Turning to `Cn1ncc2c(C#Cc3cc(NC(=O)Nc4cccc(C(F)(F)F)c4)ccc3F)cncc21` [Example 2.6, 1-[4-Fluoro-3-(1-methyl-1H-pyrazolo[3,4-c]pyridin-4-ylethynyl)-phenyl]-3-(3-trifluoromethyl-phenyl)-urea], the IC50 on human VEGFR2 is < 1 µM; in assay [1], ≥ 10 µM; on Tie-2 it was < 1 µM.
